From ChEMBL document CHEMBL5058564, “EUbOPEN Chemogenomics Library 2 (Incucyte)” (2022) come the findings set out here.

What all share (assay type): toxicity, cell-based
In one data set the test system is HEK-293T. As to the kind of experiment: Incucyte cell viability with HEK293T. Conditions: human, 10 µM, compound concentration 10 uM.
In the next data set the test system is Fibroblast. As to the kind of experiment: Incucyte cell viability with human fibroblast. Conditions: 10 µM, compound concentration 10 uM.
For a further data set, the system named is U2OS. As to the kind of experiment: Incucyte cell viability with U2OS. The following applies: human, 10 µM, compound concentration 10 uM.
[1] abbreviates: 6 h, replicate number 1, timepoint 6 hours.
Setting [2] is: 6 h, replicate number 2, timepoint 6 hours.
Where [3] appears, read: 12 h, replicate number 1, timepoint 12 hours.
Where [4] appears, read: 12 h, replicate number 2, timepoint 12 hours.
Where [5] appears, read: 18 h, replicate number 1, timepoint 18 hours.
[6] abbreviates: 18 h, replicate number 2, timepoint 18 hours.
Where [7] appears, read: 24 h, replicate number 1, timepoint 24 hours.
The mark [8] stands for this setting: 24 h, replicate number 2, timepoint 24 hours.
[9] abbreviates: 0 h, replicate number 1, timepoint 0 hours.
Where [10] appears, read: 0 h, replicate number 2, timepoint 0 hours.

Structures are written as SMILES.
Note: unitless GR value; below 1 slowed growth and below 0 cell loss.

On to `C[C@@H](O[C@H]1OCCN(Cc2n[nH]c(=O)[nH]2)[C@H]1c1ccc(F)cc1)c1cc(C(F)(F)F)cc(C(F)(F)F)c1` [APREPITANT], for which the “Growth Rate” value is 0.91 with HEK-293T (setting [1]); 0.66 in the data set on HEK-293T (setting [2]); 0.57 in the data set with HEK-293T (setting [3]); 0.97 in the data set with HEK-293T (setting [4]); 0.77 with HEK-293T (setting [5]); 0.84 in the data set with HEK-293T (setting [6]). Moreover, the “Growth Rate” value in the data set with HEK-293T (setting [7]) was 0.74; in the data set on Fibroblast (setting [1]), 0.71; with Fibroblast (setting [2]), -0.37; with Fibroblast (setting [3]), 0.39; in the data set with Fibroblast (setting [4]), -0.12; with Fibroblast (setting [5]), 0.18. In addition, the “Growth Rate” value is given as 0.17 with Fibroblast (setting [6]); 0.28 in the data set on Fibroblast (setting [7]); 0.5 in the data set with Fibroblast (setting [8]); -0.52 in the data set on U2OS (setting [9]); -1 in the data set on U2OS (setting [10]); 0.29 in the data set on U2OS (setting [1]). Also, the “Growth Rate” value is recorded as 0.58 with U2OS (setting [2]); 0.65 in the data set on U2OS (setting [4]); 0.9 in the data set on U2OS (setting [5]); 0.69 in the data set with U2OS (setting [6]); 0.79 in the data set with U2OS (setting [8]).
Turning to `CC(C)(C)c1ccc(S(=O)(=O)Nc2ccc(Cl)cc2C(=O)c2cc[n+]([O-])cc2)cc1` [VERCIRNON], the “Growth Rate” value was determined as 0.87 in the data set on HEK-293T (setting [1]); 0.35 in the data set with HEK-293T (setting [2]); 0.73 in the data set on HEK-293T (setting [4]); 0.91 in the data set on HEK-293T (setting [6]); 0.29 in the data set with Fibroblast (setting [9]); 0.25 with Fibroblast (setting [10]). The “Growth Rate” value is reported as 1 in the data set with Fibroblast (setting [5]); 0.69 with Fibroblast (setting [7]); -1 in the data set on U2OS (setting [10]); 0.94 in the data set with U2OS (setting [1]); 0.78 in the data set with U2OS (setting [5]).
In the case of `COc1ccccc1N1CCN(CCCCNC(=O)c2ccc3ccccc3c2)CC1.Cl`, the “Growth Rate” value with HEK-293T (setting [10]) was 0.97; in the data set on HEK-293T (setting [1]), 0.59; with HEK-293T (setting [2]) it was 0.65; in the data set with HEK-293T (setting [4]) it was 0.83; in the data set with HEK-293T (setting [5]) it was 0.54; in the data set on HEK-293T (setting [7]), 0.56. Besides, the “Growth Rate” value in the data set on HEK-293T (setting [8]) was 0.66; in the data set on Fibroblast (setting [9]) it was 0.79; in the data set on Fibroblast (setting [10]), -0.14; in the data set on Fibroblast (setting [1]), -0.59; in the data set on Fibroblast (setting [2]) it was 0.14; in the data set on Fibroblast (setting [3]), 0.23. The “Growth Rate” value is recorded as -0.06 in the data set with Fibroblast (setting [4]); 0.09 with Fibroblast (setting [6]); -0.24 in the data set on Fibroblast (setting [7]); 0.06 in the data set on U2OS (setting [9]); 0.51 with U2OS (setting [1]); 0.78 with U2OS (setting [2]). The “Growth Rate” value with U2OS (setting [3]) stood at 0.58; in the data set with U2OS (setting [4]), 0.96; in the data set with U2OS (setting [5]) it was 0.77; in the data set with U2OS (setting [6]), 0.97; in the data set with U2OS (setting [7]) it was 0.81; with U2OS (setting [8]), 0.92.
Consider `O=C([O-])[C@H]1O[C@H](OP(=O)([O-])OP(=O)([O-])OC[C@H]2O[C@@H](n3ccc(=O)[nH]c3=O)[C@H](O)[C@@H]2O)[C@H](O)[C@@H](O)[C@@H]1O.[Na+].[Na+].[Na+]`, for which the “Growth Rate” value is 0.81 with HEK-293T (setting [9]); -0.02 with HEK-293T (setting [10]); 0.43 in the data set on HEK-293T (setting [1]); 0.65 in the data set on HEK-293T (setting [3]); 0.64 in the data set with HEK-293T (setting [5]); 0.84 with HEK-293T (setting [7]). In addition, the “Growth Rate” value in the data set on HEK-293T (setting [8]) is on record as 0.91; in the data set with Fibroblast (setting [10]), 0.57; with Fibroblast (setting [5]) it was 0.88; in the data set on Fibroblast (setting [7]), 0.93; with U2OS (setting [9]), 0.32; in the data set with U2OS (setting [10]), 0.71. Besides, the “Growth Rate” value in the data set on U2OS (setting [1]) amounted to 0.46; with U2OS (setting [3]), 0.9; in the data set with U2OS (setting [5]), 0.9.
For the compound `CCC(=O)OCC(=O)[C@@]1(OC(=O)CC)[C@@H](C)C[C@H]2[C@@H]3CCC4=CC(=O)C=C[C@]4(C)[C@@]3(Cl)[C@@H](O)C[C@@]21C` [BECLOMETHASONE DIPROPIONATE], the “Growth Rate” value with HEK-293T (setting [9]) was 0.14; in the data set with HEK-293T (setting [10]), -0.33; with HEK-293T (setting [1]), 0.91; in the data set on HEK-293T (setting [3]), 0.61; in the data set with HEK-293T (setting [4]), 0.8; in the data set on HEK-293T (setting [5]), 0.62. The “Growth Rate” value with HEK-293T (setting [6]) is listed as 0.78; with HEK-293T (setting [7]) it was 0.65; with HEK-293T (setting [8]), 0.83; with Fibroblast (setting [9]) it was -0.17; in the data set with Fibroblast (setting [10]) it was -0.56; with U2OS (setting [9]), -0.25. In addition, the “Growth Rate” value in the data set with U2OS (setting [10]) amounted to 0.62; in the data set on U2OS (setting [1]), 0.73; in the data set on U2OS (setting [3]), 0.81; with U2OS (setting [4]), 0.85; in the data set with U2OS (setting [5]) it was 0.8; in the data set with U2OS (setting [6]), 0.81. In addition, the “Growth Rate” value was found to be 0.78 with U2OS (setting [7]) and 0.9 with U2OS (setting [8]).
With `Brc1c(N=C2NCCN2)ccc2nccnc12.O=C(O)C(O)C(O)C(=O)O`, the “Growth Rate” value in the data set on HEK-293T (setting [9]) came out at 0.76; in the data set with HEK-293T (setting [10]), 0.92; in the data set on HEK-293T (setting [1]) it was 0.47; in the data set with HEK-293T (setting [2]), 0.95; in the data set with HEK-293T (setting [3]) it was 0.79; in the data set on HEK-293T (setting [4]) it was 0.72. For the same compound, the “Growth Rate” value stood at 0.92 in the data set on HEK-293T (setting [5]); 0.83 in the data set with HEK-293T (setting [7]); 0.88 in the data set with HEK-293T (setting [8]); 0.6 with Fibroblast (setting [10]); 0.39 in the data set with Fibroblast (setting [1]); 0.7 with Fibroblast (setting [2]). The “Growth Rate” value with Fibroblast (setting [3]) was 0.82; with Fibroblast (setting [4]), 0.94; with Fibroblast (setting [5]), 0.86; with Fibroblast (setting [6]) it was 0.83; with Fibroblast (setting [7]) it was 0.87; with Fibroblast (setting [8]) it was 0.91. For the same compound, the “Growth Rate” value came out at 0.29 in the data set with U2OS (setting [9]); 0.6 in the data set on U2OS (setting [1]); 0.41 in the data set on U2OS (setting [3]); 0.78 with U2OS (setting [5]); 0.91 with U2OS (setting [6]); 0.89 with U2OS (setting [7]).
In the case of `CNc1nc(NCc2ncccn2)c2c(-c3ccc4ncccc4c3)c[nH]c2n1`, the “Growth Rate” value in the data set with HEK-293T (setting [9]) was 0.21; with HEK-293T (setting [10]), 0.76; in the data set with HEK-293T (setting [1]), 0.37; in the data set with HEK-293T (setting [2]), 0.12; with HEK-293T (setting [3]), -0.16; with HEK-293T (setting [4]) it was -0.1. In addition, the “Growth Rate” value in the data set on HEK-293T (setting [5]) is -0.23; in the data set on HEK-293T (setting [6]), -0.28; with HEK-293T (setting [7]), -0.25; in the data set on Fibroblast (setting [9]), 0.14; in the data set with Fibroblast (setting [10]), 0.3; in the data set with Fibroblast (setting [3]) it was 0.36. Besides, the “Growth Rate” value in the data set on Fibroblast (setting [5]) was -0.14; with Fibroblast (setting [7]) it was 0.06; in the data set with U2OS (setting [9]), 0.67; in the data set on U2OS (setting [4]), 0.95; in the data set on U2OS (setting [5]), 0.27; with U2OS (setting [6]), 0.56. Also, the “Growth Rate” value with U2OS (setting [7]) came to 0.4; in the data set on U2OS (setting [8]), 0.42.
